The values that follow come from patent US20230181542A1, “METHOD AND PHARMACEUTICAL COMPOSITION FOR TREATING CHRONIC KIDNEY DISEASE” (Chengdu WenDing Technology Development Co., Ltd., priority 2020, published 2023).

Values joined by “and” are separate entries in the source; they are usually repeats but may differ in a detail not shown here. Equal values may be shown once.

The test system of data set [1] is rhesus monkeys with spontaneous chronic diabetic kidney disease. In words: Blood pressure (SBP/DBP) after anesthesia. The format is in vivo, Macaca mulatta (Rhesus Macaque). The conditions noted are these: Valsartan group. Here is the method: (§1) The details of the dosing regime of each group are described below, wherein the route of administration was oral administration. The baseline period was 1 month, followed by continuous oral administration for 58 days.
Blood pressure: blood pressure was detected after anesthesia, including systolic blood pressure (SBP), diastolic blood pressure (DBP), mean blood pressure (MBP) and heart rate (HR). Detection was carried out 1 time before administration and 1 time at D58 (end of administration).
Detection method: Animals were anesthetized by intramuscular injection of 15 mg/kg ketamine hydrochloride and then placed in a supine position, followed by being tied with a cuff of appropriate size according to the corresponding standard. A blood oxygen probe was clamped on a finger or toe (except the left hand) of the animal, with the red photosensitive surface on the side of the finger pad. The blood pressure of the animal was continuously detected 3 times in automatic mode with an interval of 1 minute. If the differences in the SBP, DBP and MBP of the three times were less than 15 mmHg, the measurement completed, otherwise the measurement repeated.
Detection indicators: systolic blood pressure (SBP), diastolic blood pressure (DBP), mean blood pressure (MBP) and heart rate (HR).
Instrument: GE B40i electrophysiological monitor.

Data set [2] has the same test system. In words: Glomerular filtration rate eGFR calculated from Cr-P and CysC. The class given is in vivo, Macaca mulatta (Rhesus Macaque). The conditions noted are these: for eGFR change value: animals with eGFR 30 to 59, DOX+PMP+MTP groups 1# and 2# combined n = 5, Valsartan n = 3, Mean ± SD; for eGFR: Valsartan group, Mean ± SD (baseline 50 ± 7). As to the method: as §1
Glomerular filtration rate eGFR: creatinine (Cr-P), blood urea nitrogen (BUN), cystatin (CysC) were detected to calculate the eGFR value. Detections were performed once in the baseline period before administration, and at designated times (such as D14, D28, D45, and D58, etc.) after administration. In accordance with reference literature (Levey A S, Stevens L A, Schmid C H et al. A new equation to estimate glomerular filtration rate. Ann Intern Med 2009; 150:604-612), the formula for calculating eGFR was as follows: […]
Blood sample collection method: Before the blood collection operation, an animal was fasted overnight without anesthesia. After the animals were acclimatized, the backboard was gently squeezed to restrain the animal, and blood was collected through the forearm vein. After collection, sterilized dry cotton ball was used to gently press the blood collection site to stop bleeding.
Results of eGFR are shown in FIG. 3, Table 4-2 and Table 4-3. eGFR values of 30 to 59 ml/min/1.73m^2 were selected and included to analyze the changes of glomerular filtration rate.

Data set [3] shares this test system. Nature of the data set: Proteinuria (UACR, urinary Malb and Cr-U), 4 to 6 hour urine collection. The format is in vivo, Macaca mulatta (Rhesus Macaque). The conditions noted are these: for UACR: Valsartan group 2.67 mg/kg oral, individual animals and Mean ± SD (baseline 61 ± 33); for UACR change rate / UACR decreased by an average of (compared with the baseline) / Malb / Cr-U: Valsartan group; for UACR change rate: individual animals and Mean ± SD, negative = decrease; for Malb: individual animals and Mean ± SD (baseline 76.1 ± 114.7); for Cr-U: individual animals and Mean ± SD (baseline 90.9 ± 108.5). Here is the method:
The details of the dosing regime of each group are described below, wherein the route of administration was oral administration. The baseline period was 1 month, followed by continuous oral administration for 58 days. […] Urinary albumin excretion rate (UACR): 4 h to 6 hours urine was collected and detected for urinary microalbumin (Malb) and urinary creatinine (Cr-U), followed by calculation of UACR value. Detection was performed one time before administration, and at designated times (such as once at D30 and once at […]) after administration. UACR=Malb/Cr-U. Urine sample collection method: Animals were fasted overnight before the operation of collecting urine. On the day of operation, animals were transferred to a metabolic cage, followed by collecting all urine excreted within 4 to 6 hours into a urine collection bag. Detection method: see Tables 3-2 and 3-3 Effects on urinary albumin excretion rate (UACR) are shown in FIG. 1, FIG. 2 and Table 4-1. […]

For data set [4] the test system is unchanged. In words: Renal function markers CysC, Cr-P and BUN in blood. The class given is in vivo, Macaca mulatta (Rhesus Macaque). The conditions noted are these: Valsartan group; for CysC: Mean ± SD (baseline 1.57 ± 0.10). Here is the method: The details of the dosing regime of each group are described below, wherein the route of administration was oral administration. The baseline period was 1 month, followed by continuous oral administration for 58 days. Glomerular filtration rate eGFR: creatinine (Cr-P), blood urea nitrogen (BUN), cystatin (CysC) were detected to calculate the eGFR value. Detections were performed once in the baseline period before administration, and at designated times (such as D14, D28, […], and […], etc.) after administration. In accordance with reference literature (Levey A S, Stevens L A, Schmid C H et al. A new equation to estimate glomerular filtration rate. Ann Intern Med 2009; 150:604-612), the formula for calculating eGFR was as follows: Blood sample collection method: Before the blood collection operation, an animal was fasted overnight without anesthesia. After the animals were acclimatized, the backboard was gently squeezed to restrain the animal, and blood was collected through the forearm vein. After collection, sterilized dry cotton ball was used to gently press the blood collection site to stop bleeding. [table] CysC is an endogenous marker that reflects changes in glomerular filtration rate. Cr-P has been used as the main index of renal function for more than 40 years. In this test, glomerular filtration rate eGFR is calculate by measuring CysC and Cr-P. Although BUN was first used as an evaluation index of renal function, it could not meet the requirements of endogenous GFR markers and was only used as an auxiliary index in this test.

For data set [5] the following is noted: marketed drug, known side effects; cited from earlier work.

On to `CCCCC(=O)N(Cc1ccc(-c2ccccc2-c2nnn[nH]2)cc1)[C@H](C(=O)O)C(C)C` [Valsartan], for which the DBP in data set [1] (D 58, Mean ± SD (baseline 71 ± 15)) worked out at 63 ± 11 mmHg. In data set [1] (D 58, Mean ± SD (baseline 135 ± 16)), this compound displayed an SBP of 123 ± 12 mmHg. For the same compound, the “DBP decreased by an average of (compared with the baseline)” value in data set [1] (D58, p<0.01 vs placebo) worked out at 8±6 mmHg. The “SBP decreased by an average of (compared with the baseline)” value in data set [1] (D58, p<0.05 vs placebo) is recorded as 13±6 mmHg. The compound further returned a DBP change value in data set [1] (D 58 vs baseline, Mean ± SD) of −8 ± 5 mmHg. Also, the SBP change value in data set [1] (D 58 vs baseline, Mean ± SD) is −13 ± 6 mmHg. Also, the eGFR change value in data set [2] (D 14 minus baseline) is given as 3 ± 2 ml/min/1.73 m^2; in data set [2] (D 28 minus baseline), 6 ± 7 ml/min/1.73 m^2; in data set [2] (D 45 minus baseline), 5 ± 6 ml/min/1.73 m^2; in data set [2] (D 58 minus baseline), 10±7 ml/min/1.73 m^2. For the same compound, the eGFR is reported as 53 ± 7 ml/min/1.73 m^2 in data set [2] (D 14), 56 ± 2 ml/min/1.73 m^2 in data set [2] (D 28), 55 ± 1 ml/min/1.73 m^2 in data set [2] (D 45) and 60 ± 1 ml/min/1.73 m^2 in data set [2] (D 58). Further, the UACR in data set [3] (D 30) is 59 mg/g and 84 mg/g and 20 mg/g and 21 mg/g and 46 ± 31 mg/g; in data set [3] (D 58), 38 mg/g and 64 mg/g and 19 mg/g and 22 mg/g and 36 ± 20 mg/g. The UACR change rate in data set [3] (Baseline-D 30) is −27.11% and −14.25% and −33.78% and −42.53% and −29.41 ± 11.92%; in data set [3] (Baseline-D 58), −52.26% and −34.73% (2×) and −41.10% and −40.71 ± 8.27%. Moreover, the “UACR decreased by an average of (compared with the baseline)” value is on record as “about 30%” in data set [3] (D30) and 40.71±8.27% in data set [3] (D58, p<0.01 vs placebo). Besides, the Malb was 51.3 mg/L and 199.8 mg/L and 13.4 mg/L and 5.9 mg/L and 67.6 ± 90.3 mg/L in data set [3] (D 30); 54.9 mg/L and 206.7 mg/L and 39.9 mg/L and 6.2 mg/L and 76.9 ± 88.9 mg/L in data set [3] (D 58). For the same compound, the Cr-U is 87.5 mg/dL and 238.1 mg/dL and 68.3 mg/dL and 27.5 mg/dL and 105.3 ± 92.0 mg/dL in data set [3] (D 30); 143.0 mg/dL and 323.6 mg/dL and 206.3 mg/dL and 28.2 mg/dL and 175.3 ± 123.4 mg/dL in data set [3] (D 58). Further, the CR-P in data set [4] (D 14 (baseline 1.46 ± 0.29)) worked out at 1.26 ± 0.24 mg/dL; in data set [4] (D 28 (baseline 1.46 ± 0.29)) it was 1.18 ± 0.13 mg/dL; in data set [4] (D 45 (baseline 1.46 ± 0.29)), 1.18 ± 0.12 mg/dL; in data set [4] (D 58 (baseline 1.46 ± 0.29)), 1.10 ± 0.08 mg/dL. Besides, the BUN in data set [4] (D 14 (baseline 41.9 ± 34.2)) was 27.1 ± 6.0 mg/dL; in data set [4] (D 28 (baseline 41.9 ± 34.2)), 35.0 ± 16.6 mg/dL; in data set [4] (D 45 (baseline 41.9 ± 34.2)) it was 37.9 ± 19.2 mg/dL; in data set [4] (D 58 (baseline 41.9 ± 34.2)), 31.6 ± 11.3 mg/dL. Also, the CysC in data set [4] (D 14) amounted to 1.59 ± 0.10 mg/L; in data set [4] (D 28), 1.53 ± 0.08 mg/L; in data set [4] (D 45), 1.56 ± 0.09 mg/L; in data set [4] (D 58), 1.48 ± 0.11 mg/L.
`CCCN[C@H]1CCc2nc(N)sc2C1` [PMP, (S)-N6-propyl-4,5,6,7-tetrahydro-1,3-benzothiazole-2,6-diamine]: in data set [5], the “daily dose at which the incidence of somnolence increases” value was “above 1.5 mg”.
